The supplement of paper PMC10307832

Key:
Assay in all cases: relative viability (nuclei count vs DMSO), 5 days (fraction); higher = more cells survive
[1] = compound: OCc1c[nH]c2ccccc12 [Indole-3-carbinol] + CC(=O)Nc1cccc(-n2c(=O)n(C3CC3)c(=O)c3c(Nc4ccc(I)cc4F)n(C)c(=O)c(C)c32)c1 [Trametinib] (partner 0.02 µM)
Procedure, shortened: (§1)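 Values are medians from duplicate plates. Each reflects relative viability, defined as the nuclei count of treated wells over that of vehicle wells. Lung cancer cell lines in 1536-well plates were pin-tool dosed one day after seeding with one drug alone or with a fixed anchor-drug dose plus five library-drug doses (not always all listed) in √10 steps, then fixed, stained and imaged at 4× after 5 days.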

[2] = compound: OCc1c[nH]c2ccccc12 [Indole-3-carbinol] + CCNC(=O)c1noc(-c2cc(C(C)C)c(O)cc2O)c1-c1ccc(CN2CCOCC2)cc1 [Luminespib] (partner 0.01 µM)
Procedure, shortened: as §1

[3] = compound: OCc1c[nH]c2ccccc12 [Indole-3-carbinol] + COc1cccc2cc(-c3nc([C@H]4CC[C@H](C(=O)O)CC4)n4ncnc(N)c34)[nH]c12 [OSI-027] (partner 0.5 µM)
Procedure, shortened: as §1

[4] = compound: OCc1c[nH]c2ccccc12 [Indole-3-carbinol] + NC(=O)Nc1cc(-c2cccc(F)c2)sc1C(=O)N[C@H]1CCCNC1 [AZD7762] (partner 0.2 µM)
Procedure, shortened: as §1

[5] = compound: OCc1c[nH]c2ccccc12 [Indole-3-carbinol] + O=C(CCCCCCC(=O)Nc1ccccc1)NO [Vorinostat] (partner 1 µM)
Procedure, shortened: as §1

Cell Line	relative viability ([1]; first compound 0.253 µM)	relative viability ([1]; first compound 0.8 µM)	relative viability ([1]; first compound 2.53 µM)	relative viability ([1]; first compound 8 µM)	relative viability ([2]; first compound 0.253 µM)	relative viability ([2]; first compound 0.8 µM)	relative viability ([2]; first compound 2.53 µM)	relative viability ([2]; first compound 8 µM)	relative viability ([3]; first compound 0.253 µM)	relative viability ([3]; first compound 0.8 µM)	relative viability ([3]; first compound 2.53 µM)	relative viability ([3]; first compound 8 µM)	relative viability ([4]; first compound 0.253 µM)	relative viability ([4]; first compound 0.8 µM)	relative viability ([4]; first compound 2.53 µM)	relative viability ([4]; first compound 8 µM)	relative viability ([5]; first compound 0.253 µM)	relative viability ([5]; first compound 0.8 µM)	relative viability ([5]; first compound 2.53 µM)	relative viability ([5]; first compound 8 µM)
NCI-H2405	0.634	0.615	0.672	0.703	0.847	0.812	0.859	0.696	0.617	0.676	0.633	0.656	0.839	0.727	0.755	0.659	1	1.03	0.971	0.978
NCI-H3122	0.229	0.255	0.234	0.248	0.0769	0.123	0.108	0.0975	0.967	1.08	1.02	0.948	1.1	1	1.07	0.899	1.05	1.05	1.06	0.885
PC-3 [JPC-3]	0.749	0.719	0.678	0.667	0.644	0.796	0.722	0.658	0.714	0.741	0.704	0.745	0.723	0.925	0.765	0.91	0.827	0.926	0.801	0.875
PC-14	0.7	0.729	0.818	0.711	0.218	0.143	0.24	0.191	0.756	0.828	0.873	0.706	0.342	0.315	0.331	0.327	0.665	0.594	0.724	0.649
RERF-LC-KJ	0.812	0.904	0.943	0.825	1.25	1.18	1.23	1.11	0.556	0.545	0.585	0.601	1.07	1.01	0.962	0.885	0.687	0.622	0.656	0.726
SW 900	0.866	0.867	0.82	0.992	0.186	0.155	0.169	0.166	0.574	0.706	0.592	0.599	0.625	0.619	0.705	0.624	0.556	0.453	0.573	0.622
